Assay results reported in paper PMC4979471 (Cell Death Discovery, 2015).
Read-outs that look alike come from different tables or passages of the source.

Assays:
Test in all cases: Kinase selectivity, P33-radiolabeled assay
Format in all cases: biochemical
ALK1/ACVRL1 = biological target: T1, ALK1/ACVRL1 (Homo sapiens, UniProt P37023); conditions: 10 μM ATP
T1 construct: purchased Reaction Biology Corp
Procedure, shortened: (§1)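 Values show % enzyme activity normalised to DMSO vehicle. They come from one 10 μM compound concentration run twice, at an ATP level of 10 μM.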

Aurora B = biological target: T2, Aurora B (Homo sapiens, UniProt Q96GD4)
T2 construct: purchased Reaction Biology Corp
Procedure, shortened: as §1

BRK = biological target: T3, BRK (Homo sapiens, UniProt Q13882); conditions: 10 μM ATP
T3 construct: purchased Reaction Biology Corp
Procedure, shortened: as §1

CAMK2a = biological target: T4, CAMK2a (Homo sapiens, UniProt Q9UQM7); conditions: 10 μM ATP
T4 construct: purchased Reaction Biology Corp
Procedure, shortened: as §1

FES/FPS = biological target: T5, FES/FPS (Homo sapiens, UniProt P07332); conditions: 10 μM ATP
T5 construct: purchased Reaction Biology Corp
Procedure, shortened: as §1

HGK/MAP4K4 = biological target: T6, HGK/MAP4K4 (Homo sapiens, UniProt O95819); conditions: 10 μM ATP
T6 construct: purchased Reaction Biology Corp
Procedure, shortened: as §1

KDR/VEGFR2 = biological target: T7, KDR/VEGFR2 (Homo sapiens, UniProt P35968); conditions: 10 μM ATP
T7 construct: purchased Reaction Biology Corp
Procedure, shortened: as §1

MEKK1 = biological target: T8, MEKK1 (Homo sapiens, UniProt Q13233); conditions: 10 μM ATP
T8 construct: purchased Reaction Biology Corp
Procedure, shortened: as §1

PKCnu/PRKD3 = biological target: T9, PKCnu/PRKD3 (Homo sapiens, UniProt O94806); conditions: 10 μM ATP
T9 construct: purchased Reaction Biology Corp
T9 sequence (O94806 1-890): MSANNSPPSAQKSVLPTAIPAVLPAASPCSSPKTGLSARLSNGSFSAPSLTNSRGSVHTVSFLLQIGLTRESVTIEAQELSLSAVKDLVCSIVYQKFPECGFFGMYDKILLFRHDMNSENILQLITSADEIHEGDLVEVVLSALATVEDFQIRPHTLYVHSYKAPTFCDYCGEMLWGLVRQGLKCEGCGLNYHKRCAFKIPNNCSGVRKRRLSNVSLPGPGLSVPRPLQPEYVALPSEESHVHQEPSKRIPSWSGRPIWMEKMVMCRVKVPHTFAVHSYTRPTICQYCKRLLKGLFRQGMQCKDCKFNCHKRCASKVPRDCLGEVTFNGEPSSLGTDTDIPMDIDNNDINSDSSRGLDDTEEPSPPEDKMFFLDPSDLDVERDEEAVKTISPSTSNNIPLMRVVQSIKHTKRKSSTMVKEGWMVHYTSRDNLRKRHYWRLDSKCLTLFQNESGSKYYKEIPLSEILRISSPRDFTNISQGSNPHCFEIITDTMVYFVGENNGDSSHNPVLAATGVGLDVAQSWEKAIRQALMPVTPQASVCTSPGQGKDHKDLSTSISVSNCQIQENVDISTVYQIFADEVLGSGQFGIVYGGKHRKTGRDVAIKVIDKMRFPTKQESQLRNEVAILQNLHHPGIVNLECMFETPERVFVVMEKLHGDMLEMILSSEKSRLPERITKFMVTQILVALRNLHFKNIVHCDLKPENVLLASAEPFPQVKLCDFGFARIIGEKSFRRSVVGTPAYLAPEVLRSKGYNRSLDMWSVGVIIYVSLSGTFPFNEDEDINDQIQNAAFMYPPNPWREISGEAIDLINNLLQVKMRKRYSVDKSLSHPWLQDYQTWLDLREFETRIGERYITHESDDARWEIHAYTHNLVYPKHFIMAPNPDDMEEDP
Procedure, shortened: as §1

PRKX = biological target: T10, PRKX (Homo sapiens, UniProt P51817); conditions: 10 μM ATP
T10 construct: purchased Reaction Biology Corp
T10 sequence (P51817 1-358): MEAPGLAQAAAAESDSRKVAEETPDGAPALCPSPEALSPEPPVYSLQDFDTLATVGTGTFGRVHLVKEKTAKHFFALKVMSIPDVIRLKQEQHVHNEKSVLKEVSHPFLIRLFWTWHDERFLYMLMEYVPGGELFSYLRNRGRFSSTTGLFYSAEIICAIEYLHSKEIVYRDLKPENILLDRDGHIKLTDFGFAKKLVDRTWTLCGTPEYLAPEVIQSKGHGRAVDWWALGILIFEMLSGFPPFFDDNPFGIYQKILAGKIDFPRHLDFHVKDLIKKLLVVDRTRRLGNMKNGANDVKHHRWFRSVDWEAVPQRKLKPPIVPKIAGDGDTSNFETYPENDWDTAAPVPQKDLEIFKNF
Procedure, shortened: as §1

STK32C/YANK3 = biological target: T11, STK32C/YANK3 (Homo sapiens, UniProt Q86UX6); conditions: 10 μM ATP
T11 construct: purchased Reaction Biology Corp
Procedure, shortened: as §1

TLK2 = biological target: T12, TLK2 (Homo sapiens, UniProt Q86UE8); conditions: 10 μM ATP
T12 construct: purchased Reaction Biology Corp
Procedure, shortened: as §1

ULK3 = biological target: T13, ULK3 (Homo sapiens, UniProt Q6PHR2); conditions: 10 μM ATP
T13 construct: purchased Reaction Biology Corp
T13 sequence (Q6PHR2 1-472): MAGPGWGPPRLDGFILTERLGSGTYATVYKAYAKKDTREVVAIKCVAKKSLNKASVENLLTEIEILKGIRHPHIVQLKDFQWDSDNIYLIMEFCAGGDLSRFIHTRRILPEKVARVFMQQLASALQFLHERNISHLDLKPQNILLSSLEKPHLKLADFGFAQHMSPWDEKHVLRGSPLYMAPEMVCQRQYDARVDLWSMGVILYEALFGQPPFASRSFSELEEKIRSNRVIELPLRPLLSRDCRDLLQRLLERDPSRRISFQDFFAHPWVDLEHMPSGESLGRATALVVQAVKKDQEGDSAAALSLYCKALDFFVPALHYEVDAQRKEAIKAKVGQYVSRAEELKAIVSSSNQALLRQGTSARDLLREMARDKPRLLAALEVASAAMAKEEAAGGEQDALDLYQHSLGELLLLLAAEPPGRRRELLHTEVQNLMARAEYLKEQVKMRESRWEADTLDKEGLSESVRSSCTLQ
Procedure, shortened: as §1

[1] = read-out: % Enzyme Activity (relative to DMSO controls) AVG
[2] = read-out: % Enzyme Activity (relative to DMSO controls) Data 1
[3] = read-out: % Enzyme Activity (relative to DMSO controls) Data 2

T11 sequence (Q86UX6 whole entry): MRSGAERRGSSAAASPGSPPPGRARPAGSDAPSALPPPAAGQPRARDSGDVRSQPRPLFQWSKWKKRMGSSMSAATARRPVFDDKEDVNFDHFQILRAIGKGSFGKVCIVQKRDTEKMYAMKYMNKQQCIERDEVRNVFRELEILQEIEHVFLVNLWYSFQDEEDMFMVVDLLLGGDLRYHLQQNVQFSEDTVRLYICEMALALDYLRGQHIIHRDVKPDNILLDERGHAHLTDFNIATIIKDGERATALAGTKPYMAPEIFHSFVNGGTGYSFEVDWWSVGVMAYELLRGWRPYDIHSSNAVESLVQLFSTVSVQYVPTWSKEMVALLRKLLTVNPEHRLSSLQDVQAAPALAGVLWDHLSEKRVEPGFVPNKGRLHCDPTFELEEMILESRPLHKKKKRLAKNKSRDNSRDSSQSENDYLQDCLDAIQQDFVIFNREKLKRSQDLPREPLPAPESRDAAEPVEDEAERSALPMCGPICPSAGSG
T12 sequence (Q86UE8 whole entry): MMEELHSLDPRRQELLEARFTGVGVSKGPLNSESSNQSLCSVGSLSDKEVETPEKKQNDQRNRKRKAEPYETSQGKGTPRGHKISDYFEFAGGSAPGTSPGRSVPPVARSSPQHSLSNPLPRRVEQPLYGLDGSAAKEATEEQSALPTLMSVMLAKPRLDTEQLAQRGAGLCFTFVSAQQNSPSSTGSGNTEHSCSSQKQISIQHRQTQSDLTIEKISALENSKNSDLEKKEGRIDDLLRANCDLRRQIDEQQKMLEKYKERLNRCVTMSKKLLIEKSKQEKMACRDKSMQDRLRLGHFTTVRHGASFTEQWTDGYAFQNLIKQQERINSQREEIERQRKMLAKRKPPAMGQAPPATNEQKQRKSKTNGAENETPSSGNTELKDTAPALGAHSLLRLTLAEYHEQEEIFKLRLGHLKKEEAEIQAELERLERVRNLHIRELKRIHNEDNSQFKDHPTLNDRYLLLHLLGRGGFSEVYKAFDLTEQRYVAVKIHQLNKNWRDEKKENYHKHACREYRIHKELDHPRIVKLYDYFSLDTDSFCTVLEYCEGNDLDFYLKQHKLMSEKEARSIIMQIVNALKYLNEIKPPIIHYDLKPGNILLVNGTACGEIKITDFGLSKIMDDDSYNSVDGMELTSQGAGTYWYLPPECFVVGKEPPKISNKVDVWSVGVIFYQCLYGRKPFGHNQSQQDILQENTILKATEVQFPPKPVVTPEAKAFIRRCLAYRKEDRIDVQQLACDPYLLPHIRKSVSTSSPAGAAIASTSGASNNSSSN
T2 sequence (Q96GD4 whole entry): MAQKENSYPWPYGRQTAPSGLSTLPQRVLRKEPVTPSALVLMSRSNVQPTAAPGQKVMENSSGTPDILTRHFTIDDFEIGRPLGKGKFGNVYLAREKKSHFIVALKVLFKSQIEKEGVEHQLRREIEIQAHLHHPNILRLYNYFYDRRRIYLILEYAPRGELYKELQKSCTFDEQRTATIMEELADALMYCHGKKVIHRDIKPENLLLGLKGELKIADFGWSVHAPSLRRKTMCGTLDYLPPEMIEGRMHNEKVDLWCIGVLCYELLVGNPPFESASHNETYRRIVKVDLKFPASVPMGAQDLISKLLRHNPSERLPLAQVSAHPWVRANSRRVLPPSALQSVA
T8 sequence (Q13233 whole entry): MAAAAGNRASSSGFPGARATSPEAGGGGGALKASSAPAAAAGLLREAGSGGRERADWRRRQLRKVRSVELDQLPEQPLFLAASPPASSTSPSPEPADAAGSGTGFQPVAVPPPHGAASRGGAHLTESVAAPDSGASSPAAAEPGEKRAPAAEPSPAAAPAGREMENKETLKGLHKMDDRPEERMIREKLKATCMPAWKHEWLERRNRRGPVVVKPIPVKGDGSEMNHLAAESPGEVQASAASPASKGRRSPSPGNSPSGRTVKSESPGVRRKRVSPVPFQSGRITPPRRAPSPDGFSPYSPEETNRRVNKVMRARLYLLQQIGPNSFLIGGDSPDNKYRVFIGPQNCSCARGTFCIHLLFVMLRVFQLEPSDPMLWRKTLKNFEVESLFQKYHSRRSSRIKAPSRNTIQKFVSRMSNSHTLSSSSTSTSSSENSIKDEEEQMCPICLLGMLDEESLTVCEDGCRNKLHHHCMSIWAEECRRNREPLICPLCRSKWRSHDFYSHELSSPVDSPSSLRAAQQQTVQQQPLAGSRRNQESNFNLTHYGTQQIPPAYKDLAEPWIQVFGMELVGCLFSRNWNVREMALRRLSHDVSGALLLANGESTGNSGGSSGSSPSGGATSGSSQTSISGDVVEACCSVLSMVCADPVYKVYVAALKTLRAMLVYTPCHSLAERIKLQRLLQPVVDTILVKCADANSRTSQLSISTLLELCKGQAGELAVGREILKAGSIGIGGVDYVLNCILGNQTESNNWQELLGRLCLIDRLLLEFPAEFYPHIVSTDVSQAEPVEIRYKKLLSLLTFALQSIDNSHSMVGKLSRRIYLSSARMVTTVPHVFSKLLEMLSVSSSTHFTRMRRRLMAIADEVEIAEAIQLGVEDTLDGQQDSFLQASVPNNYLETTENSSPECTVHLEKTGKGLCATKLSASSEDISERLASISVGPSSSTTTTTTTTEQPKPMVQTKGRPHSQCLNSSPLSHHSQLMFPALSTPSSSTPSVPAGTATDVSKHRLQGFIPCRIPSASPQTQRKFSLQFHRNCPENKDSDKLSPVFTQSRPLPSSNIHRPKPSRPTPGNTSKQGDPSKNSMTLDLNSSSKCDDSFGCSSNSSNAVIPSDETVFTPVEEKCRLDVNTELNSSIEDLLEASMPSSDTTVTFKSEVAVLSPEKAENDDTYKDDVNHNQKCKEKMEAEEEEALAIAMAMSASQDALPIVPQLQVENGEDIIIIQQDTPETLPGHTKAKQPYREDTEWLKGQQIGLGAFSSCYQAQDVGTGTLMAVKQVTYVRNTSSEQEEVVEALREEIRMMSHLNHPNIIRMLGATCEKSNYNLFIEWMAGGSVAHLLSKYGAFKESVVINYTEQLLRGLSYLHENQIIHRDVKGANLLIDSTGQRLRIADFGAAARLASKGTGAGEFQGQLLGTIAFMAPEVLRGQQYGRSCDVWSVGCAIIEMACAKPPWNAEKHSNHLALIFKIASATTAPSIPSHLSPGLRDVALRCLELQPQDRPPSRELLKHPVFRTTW
T4 sequence (Q9UQM7 whole entry): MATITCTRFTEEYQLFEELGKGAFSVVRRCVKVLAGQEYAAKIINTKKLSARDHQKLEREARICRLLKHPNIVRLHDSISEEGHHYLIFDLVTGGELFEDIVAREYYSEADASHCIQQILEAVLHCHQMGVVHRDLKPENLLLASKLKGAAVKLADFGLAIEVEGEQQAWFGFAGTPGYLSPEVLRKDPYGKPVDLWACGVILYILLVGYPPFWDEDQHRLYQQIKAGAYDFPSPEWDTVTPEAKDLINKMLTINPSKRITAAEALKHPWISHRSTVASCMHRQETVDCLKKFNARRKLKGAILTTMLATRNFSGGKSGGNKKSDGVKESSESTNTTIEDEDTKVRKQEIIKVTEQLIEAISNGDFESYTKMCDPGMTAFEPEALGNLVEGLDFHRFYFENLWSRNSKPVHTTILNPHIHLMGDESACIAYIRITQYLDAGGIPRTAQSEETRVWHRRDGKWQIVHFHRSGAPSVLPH
T7 sequence (P35968 20-1356): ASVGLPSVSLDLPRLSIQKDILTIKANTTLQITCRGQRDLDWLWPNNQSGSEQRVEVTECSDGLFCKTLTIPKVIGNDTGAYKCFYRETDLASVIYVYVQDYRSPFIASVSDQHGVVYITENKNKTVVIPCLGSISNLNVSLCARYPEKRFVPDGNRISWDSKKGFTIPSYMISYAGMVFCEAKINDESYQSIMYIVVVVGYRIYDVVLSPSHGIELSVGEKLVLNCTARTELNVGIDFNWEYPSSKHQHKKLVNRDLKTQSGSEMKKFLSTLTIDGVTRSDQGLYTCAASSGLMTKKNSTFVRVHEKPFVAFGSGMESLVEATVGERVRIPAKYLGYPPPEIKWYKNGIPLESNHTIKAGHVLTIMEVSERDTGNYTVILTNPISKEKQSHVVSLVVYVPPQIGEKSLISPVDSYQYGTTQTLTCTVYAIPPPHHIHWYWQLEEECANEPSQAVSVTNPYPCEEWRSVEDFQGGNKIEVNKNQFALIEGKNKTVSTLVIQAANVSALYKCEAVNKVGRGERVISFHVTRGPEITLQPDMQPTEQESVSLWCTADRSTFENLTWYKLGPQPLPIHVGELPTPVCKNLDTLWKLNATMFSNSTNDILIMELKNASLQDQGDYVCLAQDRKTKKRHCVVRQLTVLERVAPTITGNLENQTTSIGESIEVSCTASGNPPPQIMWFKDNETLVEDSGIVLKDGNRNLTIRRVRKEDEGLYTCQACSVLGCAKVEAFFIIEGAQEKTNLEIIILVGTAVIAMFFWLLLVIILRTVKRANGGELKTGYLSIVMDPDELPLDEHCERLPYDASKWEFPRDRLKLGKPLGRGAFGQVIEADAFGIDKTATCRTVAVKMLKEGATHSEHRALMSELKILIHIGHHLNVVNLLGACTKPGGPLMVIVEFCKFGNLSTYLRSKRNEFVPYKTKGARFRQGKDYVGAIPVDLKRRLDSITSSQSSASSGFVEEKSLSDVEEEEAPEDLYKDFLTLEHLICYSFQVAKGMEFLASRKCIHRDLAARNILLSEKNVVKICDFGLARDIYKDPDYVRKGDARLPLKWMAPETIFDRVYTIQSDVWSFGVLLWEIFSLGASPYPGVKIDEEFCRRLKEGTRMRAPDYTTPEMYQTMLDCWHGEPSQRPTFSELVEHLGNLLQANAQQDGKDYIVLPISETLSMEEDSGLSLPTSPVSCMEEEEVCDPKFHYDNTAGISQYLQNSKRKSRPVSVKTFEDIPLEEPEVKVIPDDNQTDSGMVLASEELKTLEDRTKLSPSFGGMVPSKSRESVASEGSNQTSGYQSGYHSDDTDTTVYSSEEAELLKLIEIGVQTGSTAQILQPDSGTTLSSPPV

Structure (SMILES): CC(C)(C)C(=O)N1N=CC[C@H]1c1ccccc1 [GSK′963]
- remaining activity at 10 µM (ALK1/ACVRL1; [1]): 97.7%
- remaining activity at 10 µM (ALK1/ACVRL1; [2]): 104%
- remaining activity at 10 µM (ALK1/ACVRL1; [3]): 91.2%
- remaining activity at 10 µM (Aurora B; 10 uM, 10 μM ATP, read-out: % Enzyme Activity (relative to DMSO controls) Data 1): 104%
- remaining activity at 10 µM (Aurora B; 10 uM, 10 μM ATP, read-out: % Enzyme Activity (relative to DMSO controls) Data 2): 98.7%
- remaining activity at 10 µM (Aurora B; [1]): 101%
- remaining activity at 10 µM (BRK; [1]): 93.2%
- remaining activity at 10 µM (BRK; [2]): 96.2%
- remaining activity at 10 µM (BRK; [3]): 90.2%
- remaining activity at 10 µM (CAMK2a; [1]): 102%
- remaining activity at 10 µM (CAMK2a; [2]): 101%
- remaining activity at 10 µM (CAMK2a; [3]): 102%
- remaining activity at 10 µM (FES/FPS; [1]): 91.3%
- remaining activity at 10 µM (FES/FPS; [2]): 93.2%
- remaining activity at 10 µM (FES/FPS; [3]): 89.5%
- remaining activity at 10 µM (HGK/MAP4K4; [1]): 95.7%
- remaining activity at 10 µM (HGK/MAP4K4; [2]): 94.5%
- remaining activity at 10 µM (HGK/MAP4K4; [3]): 97%
- remaining activity at 10 µM (KDR/VEGFR2; [1]): 97.1%
- remaining activity at 10 µM (KDR/VEGFR2; [2]): 96.8%
- remaining activity at 10 µM (KDR/VEGFR2; [3]): 97.5%
- remaining activity at 10 µM (MEKK1; [1]): 97.3%
- remaining activity at 10 µM (MEKK1; [2]): 101%
- remaining activity at 10 µM (MEKK1; [3]): 94%
- remaining activity at 10 µM (PKCnu/PRKD3; [1]): 101%
- remaining activity at 10 µM (PKCnu/PRKD3; [2]): 103%
- remaining activity at 10 µM (PKCnu/PRKD3; [3]): 100%
- remaining activity at 10 µM (PRKX; [1]): 107%
- remaining activity at 10 µM (PRKX; [2]): 106%
- remaining activity at 10 µM (PRKX; [3]): 107%
- remaining activity at 10 µM (STK32C/YANK3; [1]): 98.9%
- remaining activity at 10 µM (STK32C/YANK3; [2]): 97.5%
- remaining activity at 10 µM (STK32C/YANK3; [3]): 100%
- remaining activity at 10 µM (TLK2; [1]): 93.2%
- remaining activity at 10 µM (TLK2; [2]): 92.9%
- remaining activity at 10 µM (TLK2; [3]): 93.5%
- remaining activity at 10 µM (ULK3; [1]): 91.6%
- remaining activity at 10 µM (ULK3; [2]): 92.2%
- remaining activity at 10 µM (ULK3; [3]): 90.9%
